In US11851440B2, “Modulators of eukaryotic initiation factor 2B, compositions and methods” (Denali Therapeutics Inc., priority 2017, dated 2023):

System: ISR pathway (ATF4 translation)
Assay: ATF4 Nano Luciferase reporter integrated stress response (ISR) assay in H4 ATF4-NLuc cells
Conditions: Homo sapiens, H4 ATF4-NLuc (clone 17) cells; compound 30 minutes, then 50 um sodium arsenite for 6 hours; luminescence readout

IC50 [nM] | Structure (SMILES)
17.1 | O=C(COc1ccc(Cl)c(F)c1)NC12CC(c3nnc(C4CN(CC(F)(F)F)C4)o3)(C1)C2 [Example 15, 2-(4-chloro-3-fluoro-phenoxy)-N-[1-[5-[1-(2,2,2-trifluoroethyl)azetidin-3-yl]-1,3,4-oxadiazol-2-yl]-3-bicyclo[1.1.1]pentanyl]acetamide]

Same assay, conditions: Homo sapiens, read-out: Activity (IC50), H4 ATF4-NLuc (clone 17) cells; compound 30 minutes, then 50 um sodium arsenite for 6 hours; luminescence readout

IC50 [nM] | Structure (SMILES)
< 1000 | O=C(COc1ccc(F)c(F)c1)NC12CC(n3cnc([C@H]4C[C@H](OC(F)(F)F)C4)c3)(C1)C2 [Example 144]
< 1000 | O=C(COc1ccc(Cl)c(F)c1)NC12CC(c3nnc(C4CN(CC(F)(F)F)CCO4)o3)(C1)C2 (stereo not shown) [Example 127, 2-(4-chloro-3-fluoro-phenoxy)-N-[3-[5-[4-(2,2,2-trifluoroethyl)morpholin-2-yl]-1,3,4-oxadiazol-2-yl]-1-bicyclo[1.1.1]pentanyl]acetamide]
> 10000 | CC(C)(c1nnc(C23CC(NC(=O)COc4ccc(Cl)c(F)c4)(C2)C3)o1)C(F)F [Example 131, 2-(4-chloro-3-fluoro-phenoxy)-N-[3-[5-(2,2-difluoro-1,1-dimethyl-ethyl)-1,3,4-oxadiazol-2-yl]-1-bicyclo[1.1.1]pentanyl]acetamide]
< 1000 | N#CC1CC([C@H]2CN(C34CC(NC(=O)COc5ccc(Cl)c(F)c5)(C3)C4)C(=O)O2)C1 (single isomer, unassigned) [Example 218]
< 1000 | N#Cc1cc(C(F)(F)F)ccc1-c1cn(C23CC(NC(=O)CO[C@H]4C[C@@H](OC(F)(F)F)C4)(C2)C3)cn1 [Example 255]
1000 to 10000 | CC(C)(C)OC(=O)N1CCOC(c2nnc(C34CC(NC(=O)COc5ccc(Cl)c(F)c5)(C3)C4)o2)C1 (stereo not shown) [Example 128, tert-butyl 2-[5-[3-[[2-(4-chloro-3-fluoro-phenoxy)acetyl]amino]-1-bicyclo[1.1.1]pentanyl]-1,3,4-oxadiazol-2-yl]morpholine-4-carboxylate]
< 1000 | O=C(NC12CC(n3cnc(-c4ccc(Cl)c(F)c4)c3)(C1)C2)C1CCN(CC(F)(F)F)CC1 [Example 155]
< 1000 | O=C(COc1ccc(Cl)c(F)c1)NC12CC(C3=NOC(C4CCCC4)C3)(C1)C2 (stereo not shown) [Example 21, 2-(4-chloro-3-fluorophenoxy)-N-(3-(5-cyclopentyl-4,5-dihydroisoxazol-3-yl)bicyclo[1.1.1]pentan-1-yl)acetamide]
1000 to 10000 | O=C(COc1ccc(Cl)c(F)c1)NC12CC(N3CC(COC(F)(F)F)OC3=O)(C1)C2 (stereo not shown) [Example 223]
< 1000 | O=C(NC12CC(c3nnc([C@H]4C[C@@H](OC(F)(F)F)C4)o3)(C1)C2)c1cn2ncc(Cl)cc2n1 [Example 177]
< 1000 | O=C(CO[C@H]1C[C@@H](OC(F)(F)F)C1)NC12CC(c3ncn(-c4ccc(Cl)c(F)c4)n3)(C1)C2 [Example 239]
< 1000 | O=C(CO[C@H]1C[C@@H](OC(F)(F)F)C1)NC12CC(n3cnc(C4=NCC(C(F)(F)F)O4)c3)(C1)C2 (stereo partly shown) [Example 267]
< 1000 | O=C(CO[C@H]1C[C@@H](OC(F)(F)F)C1)NC12CC(c3cc(-c4ccc5c(c4)OC(F)(F)O5)no3)(C1)C2 [Example 258]
< 1000 | O=C(COc1ccc(Cl)c(F)c1)NC12CC(c3cc(C4CCC4)no3)(C1)C2 [Example 26, 2-(4-Chloro-3-fluorophenoxy)-N-(3-(3-cyclobutylisoxazol-5-yl)bicyclo[1.1.1]pentan-1-yl)acetamide]
< 1000 | O=C(COc1ccc(Cl)c(F)c1)NC12CC(C3=NOC(C4CCC4)C3)(C1)C2 (stereo not shown) [Example 23, 2-(4-chloro-3-fluorophenoxy)-N-(3-(5-cyclobutyl-4,5-dihydroisoxazol-3-yl)bicyclo[1.1.1]pentan-1-yl)acetamide]
< 1000 | O=C(COc1ccc(Cl)c(F)c1)NC12CC(c3c[nH]nn3)(C1)C2 [Example 32, N-(3-(1H-1,2,3-triazol-4-yl)bicyclo[1.1.1]pentan-1-yl)-2-(4-chloro-3-fluorophenoxy)acetamide]
< 1000 | O=C(COc1ccc(Cl)c(F)c1)NC12CC(c3nnc(C4CN(CC(F)(F)F)C4)o3)(C1)C2 [Example 15, 2-(4-chloro-3-fluoro-phenoxy)-N-[1-[5-[1-(2,2,2-trifluoroethyl)azetidin-3-yl]-1,3,4-oxadiazol-2-yl]-3-bicyclo[1.1.1]pentanyl]acetamide]
< 1000 | O=C(COc1ccc(Cl)c(F)c1)NC12CC(c3nnc(CN4CC(C(F)(F)F)C4)o3)(C1)C2 [Example 126, 2-(4-chloro-3-fluoro-phenoxy)-N-[3-[5-[[3-(trifluoromethyl)azetidin-1-yl]methyl]-1,3,4-oxadiazol-2-yl]-1-bicyclo[1.1.1]pentanyl]acetamide]

IC50 [nM] | Structure (SMILES)
< 1000 | O=C(CO[C@H]1C[C@@H](OC(F)(F)F)C1)NC12CC(n3cnc(-c4ccc(C(F)(F)F)c(F)c4)c3)(C1)C2 [Example 149]
< 1000 | O=C(CO[C@H]1C[C@@H](OC(F)(F)F)C1)NC12CC(c3cnc(-c4ccc(Cl)c(F)c4)o3)(C1)C2 [Example 247]
< 1000 | O=C(COc1ccc(Cl)c(F)c1)NC12CC(c3nnc([C@H]4C[C@@H](C(F)(F)F)C4)o3)(C1)C2 [Example 43, 2-(4-chloro-3-fluorophenoxy)-N-(3-(5-((cis)-3-(trifluoromethyl)cyclobutyl)-1,3,4-oxadiazol-2-yl)bicyclo[1.1.1]pentan-1-yl)acetamide]
< 1000 | O=C(NC12CC(c3nnc([C@H]4C[C@@H](OC(F)(F)F)C4)o3)(C1)C2)C1CCc2cc(F)ccc2O1 (single isomer, unassigned) [Example 159]
< 1000 | O=C(COc1cccc(Cl)c1)NC12CC(c3nnc([C@H]4C[C@@H](OC(F)(F)F)C4)o3)(C1)C2 [Example 156]
< 1000 | O=C(COc1ccc(Cl)c(CO)c1)NC12CC(c3nnc([C@H]4C[C@@H](OC(F)(F)F)C4)o3)(C1)C2 [Example 256]
< 1000 | CC(N1CC(c2nnc(C34CC(NC(=O)COc5ccc(Cl)c(F)c5)(C3)C4)o2)C1)C(F)(F)F (stereo not shown) [Example 123, 2-(4-chloro-3-fluoro-phenoxy)-N-[3-[5-[1-(2,2,2-trifluoro-1-methyl-ethyl)azetidin-3-yl]-1,3,4-oxadiazol-2-yl]-1-bicyclo[1.1.1]pentanyl]acetamide]
< 1000 | O=C(COc1ccc(Cl)c(F)c1)NC12CC(c3nc(C4CCC4)co3)(C1)C2 [Example 27, 2-(4-chloro-3-fluoro-phenoxy)-N-[1-(4-cyclobutyloxazol-2-yl)-3-bicyclo[1.1.1]pentanyl]acetamide]
< 1000 | O=C(COc1ccc(F)cc1)NC12CC(c3nnc([C@H]4C[C@@H](OC(F)(F)F)C4)o3)(C1)C2 [Example 71, 2-(4-fluorophenoxy)-N-[3-[5-[3-cis-(trifluoromethoxy)cyclobutyl]-1,3,4-oxadiazol-2-yl]-1-bicyclo[1.1.1]pentanyl]acetamide]
< 1000 | Cc1cc(F)ccc1-c1cn(C23CC(NC(=O)CO[C@H]4C[C@@H](OC(F)(F)F)C4)(C2)C3)cn1 [Example 142]
< 1000 | O=C(COc1ccc(Cl)cc1)NC12CC(N3C[C@H](C4CC(OC(F)(F)F)C4)OS3(=O)=O)(C1)C2 (stereo partly shown) [Example 266]
< 1000 | O=C(COc1ccc(Cl)cc1)NC12CC(c3nnn([C@H]4C[C@@H](OC(F)(F)F)C4)n3)(C1)C2 [Example 242]
< 1000 | O=C(COc1ccc(Cl)c(F)c1)NC12CC(c3cc(C4CCCC4)on3)(C1)C2 [Example 22, 2-(4-chloro-3-fluorophenoxy)-N-(3-(5-cyclopentylisoxazol-3-yl)bicyclo[1.1.1]pentan-1-yl)acetamide]
< 1000 | O=C(COc1ccc(Cl)c(F)c1)NC12CC(N3C[C@H](C4CC(OC(F)(F)F)C4)OC3=O)(C1)C2 (single isomer, unassigned) [Example 206]
< 1000 | O=C(NC12CC(n3cnc(-c4ccc(Cl)c(F)c4)c3)(C1)C2)[C@H]1C[C@@H](OC(F)(F)F)C1 [Example 153]
< 1000 | O=C(COc1ccc(Cl)c(F)c1)NC12CC(N3CC(C4CN(CC(F)(F)F)C4)OC3=O)(C1)C2 (stereo not shown) [Example 224]
< 1000 | N#C[C@H]1C[C@@H](n2cc(C34CC(NC(=O)COc5ccc(Cl)c(F)c5)(C3)C4)nn2)C1 (relative stereo) [Example 35, 2-(4-chloro-3-fluorophenoxy)-N-(3-(1-((cis)-3-cyanocyclobutyl)-1H-1,2,3-triazol-4-yl)bicyclo[1.1.1]pentan-1-yl)acetamide]
< 1000 | O=C(NC12CC(c3nnc([C@H]4C[C@@H](OC(F)(F)F)C4)o3)(C1)C2)c1cc2ccc(Cl)n2cn1 [Example 181]

Structure (SMILES) | IC50 [nM]
O=C(COC1CCC1)NC12CC(c3cn(-c4ccc(Cl)cc4)nn3)(C1)C2 [Example 28, N-[1-[1-(4-Chlorophenyl)triazol-4-yl]-3-bicyclo[1.1.1]pentanyl]-2-(cyclobutoxy)acetamide] | < 1000
O=C(COC1CCC1)NC12CC(c3nnc(COc4ccc(Cl)c(F)c4)[nH]3)(C1)C2 [Example 37, N-(3-(5-((4-chloro-3-fluorophenoxy)methyl)-4H-1,2,4-triazol-3-yl)bicyclo[1.1.1]pentan-1-yl)-2-cyclobutoxyacetamide] | 1000 to 10000

Same assay, conditions: read-out: Activity (IC50); H4 ATF4-NLuc (clone 17) cells; compound 30 minutes, then 50 um sodium arsenite for 6 hours; luminescence readout

Structure (SMILES) | IC50 [nM]
O=C(COC1CC(OC(F)(F)F)C1)NC12CC(c3nnc(C4C[C@H]4COC(F)(F)F)o3)(C1)C2 (single isomer, unassigned) [Example 90, 2-[cis-3-(trifluoromethoxy)cyclobutoxy]-N-[3-[5-[cis-2-(trifluoromethoxymethyl)cyclopropyl]-1,3,4-oxadiazol-2-yl]-1-bicyclo[1.1.1]pentanyl]acetamide] | > 10000
O=C(COc1ccc(Cl)cc1)NC12CC(c3nnc([C@H]4C[C@H](COC(F)(F)F)C4)o3)(C1)C2 [Example 87, 2-(4-chlorophenoxy)-N-[3-[5-[3-trans-(trifluoromethoxymethyl)cyclobutyl]-1,3,4-oxadiazol-2-yl]-1-bicyclo[1.1.1]pentanyl]acetamide] | < 1000
O=C(COc1ccc(Cl)c(F)c1)NC12CC(C3CN(CC4CCC4)C(=O)O3)(C1)C2 (stereo not shown) [Example 60] | < 1000
O=C(NC12CC(c3nnc([C@H]4C[C@@H](OC(F)(F)F)C4)o3)(C1)C2)C1CCc2cc(Cl)ccc2O1 (single isomer, unassigned) [Example 158, 6-chloro-N-(3-(5-(3-cis-(trifluoromethoxy)cyclobutyl)-1,3,4-oxadiazol-2-yl)bicyclo[1.1.1]pentan-1-yl)chroman-2-carboxamide] | < 1000
